Results reported in PMC6297231 (Nature Communications, 2018).

How the values were obtained:
Experiment in all cases: cells
SKBR3 = settings: Homo sapiens, SK-BR-3, 6 h, read-out: AZD5991 6h EC50
Summary of the method: (§1)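 Cells were seeded at 3000 cells/well in their respective growth media and treated with compound. Caspase-3/7 activation was read by Caspase-Glo 3/7 luminescence and viability by CellTiter-Glo; EC50 and GI50 came from dose–response curves. Caspase activation is expressed relative to a cell-kill control set at 100%.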

Daudi = settings: Homo sapiens, 6 h, read-out: AZD5991 6h EC50
Summary of the method: as §1

Colo205 = settings: Homo sapiens, COLO 205, 6 h, read-out: AZD5991 6h EC50
Summary of the method: as §1

H1734 = settings: Homo sapiens, NCI-H1734, 6 h, read-out: AZD5991 6h EC50
Summary of the method: as §1

Raji = settings: Homo sapiens, 6 h, read-out: AZD5991 6h EC50
Summary of the method: as §1

LnCAP = settings: Homo sapiens, 6 h, read-out: AZD5991 6h EC50
Summary of the method: as §1

SKLU1 = settings: Homo sapiens, SK-LU-1, 6 h, read-out: AZD5991 6h EC50
Summary of the method: as §1

Sudhl6 = settings: Homo sapiens, SU-DHL-6, 6 h, read-out: AZD5991 6h EC50
Summary of the method: as §1

OCILY19 = settings: Homo sapiens, OCI-LY19, 6 h, read-out: AZD5991 6h EC50
Summary of the method: as §1

DMS114 = settings: Homo sapiens, DMS-114, 6 h, read-out: AZD5991 6h EC50
Summary of the method: as §1

Karpas620 = settings: Karpas-620, 6 h, read-out: AZD5991 6h EC50
Summary of the method: as §1

H1048 = settings: Homo sapiens, NCI-H1048, 6 h, read-out: AZD5991 6h EC50
Summary of the method: as §1

H1975 = settings: Homo sapiens, NCI-H1975, 6 h, read-out: AZD5991 6h EC50
Summary of the method: as §1

Bjab = settings: Homo sapiens, 6 h, read-out: AZD5991 6h EC50
Summary of the method: as §1

SBC5 = settings: Homo sapiens, SBC-5, 6 h, read-out: AZD5991 6h EC50
Summary of the method: as §1

Toledo = settings: Homo sapiens, 6 h, read-out: AZD5991 6h EC50
Summary of the method: as §1

H146 = settings: Homo sapiens, NCI-H146, 6 h, read-out: AZD5991 6h EC50
Summary of the method: as §1

ML2 = settings: Homo sapiens, ML-2, 6 h, read-out: AZD5991 6h EC50
Summary of the method: as §1

G361 = settings: Homo sapiens, G-361, 6 h, read-out: AZD5991 6h EC50
Summary of the method: as §1

RCPIWM1 = settings: 6 h, read-out: AZD5991 6h EC50
Summary of the method: as §1

GIST 430/654 = settings: GIST-430/654, 6 h, read-out: AZD5991 6h EC50
Summary of the method: as §1

JJN3 = settings: Homo sapiens, JJN-3, 6 h, read-out: AZD5991 6h EC50
Summary of the method: as §1

KG1a = settings: Homo sapiens, KG-1a, 6 h, read-out: AZD5991 6h EC50
Summary of the method: as §1

RPMI8226 = settings: Homo sapiens, RPMI-8226, 6 h, read-out: AZD5991 6h EC50
Summary of the method: as §1

5637 = settings: 6 h, read-out: AZD5991 6h EC50
Summary of the method: as §1

MM1S = settings: Homo sapiens, MM1.S, 6 h, read-out: AZD5991 6h EC50
Summary of the method: as §1

MDAMB468 = settings: Homo sapiens, MDA-MB-468, 6 h, read-out: AZD5991 6h EC50
Summary of the method: as §1

JEKO1 = settings: Homo sapiens, JeKo-1, 6 h, read-out: AZD5991 6h EC50
Summary of the method: as §1

OE21 = settings: OE21, 6 h, read-out: AZD5991 6h EC50
Summary of the method: as §1

Kasumi1 = settings: Homo sapiens, Kasumi 1, 6 h, read-out: AZD5991 6h EC50
Summary of the method: as §1

H446 = settings: Homo sapiens, NCI-H446, 6 h, read-out: AZD5991 6h EC50
Summary of the method: as §1

Namalwa = settings: 6 h, read-out: AZD5991 6h EC50
Summary of the method: as §1

H647 = settings: Homo sapiens, NCI-H647, 6 h, read-out: AZD5991 6h EC50
Summary of the method: as §1

SKMEL3 = settings: Homo sapiens, SK-MEL3, 6 h, read-out: AZD5991 6h EC50
Summary of the method: as §1

H82 = settings: Homo sapiens, NCI-H82, 6 h, read-out: AZD5991 6h EC50
Summary of the method: as §1

HBL1 = settings: HBL1, 6 h, read-out: AZD5991 6h EC50
Summary of the method: as §1

With Cc1c2c(nn1C)CSCc1cc(n(C)n1)CSc1cc(c3ccccc3c1)OCCCc1c(C(=O)O)n(C)c3c-2c(Cl)ccc13 (atropisomer, axis not shown; (Ra)) [(Ra)-7] the EC50 (SKBR3) was over 30000 nM, the EC50 (Daudi) was 16100 nM and the EC50 (Colo205) was 121 nM. The EC50 (H1734) was 20100 nM, the EC50 (Raji) was 7400 nM and the EC50 (LnCAP) was over 30000 nM. It also gave an EC50 (SKLU1) of over 30000 nM, an EC50 (Sudhl6) of 56 nM and an EC50 (OCILY19) of 188 nM. It also gave an EC50 (DMS114) of 290 nM, an EC50 (Karpas620) of 122 nM and an EC50 (H1048) of over 30000 nM. It also gave an EC50 (H1975) of over 30000 nM, an EC50 (Bjab) of 47 nM and an EC50 (SBC5) of 1120 nM. It also gave an EC50 (Toledo) of 1260 nM, an EC50 (H146) of over 30000 nM and an EC50 (ML2) of 83 nM. The EC50 (G361) was 2440 nM, the EC50 (RCPIWM1) was 39 nM and the EC50 (GIST 430/654) was 18600 nM. It also gave an EC50 (JJN3) of 223 nM, an EC50 (KG1a) of 1420 nM and an EC50 (RPMI8226) of 76 nM. It also gave an EC50 5637 of 107 nM, an EC50 (MM1S) of 3600 nM and an EC50 (MDAMB468) of over 30000 nM. The EC50 (JEKO1) was 512 nM, the EC50 (OE21) was 187 nM and the EC50 (Kasumi1) was 297 nM. The EC50 (H446) was over 30000 nM, the EC50 (Namalwa) was 67 nM and the EC50 (H647) was over 30000 nM. It also gave an EC50 (SKMEL3) of over 30000 nM, an EC50 (H82) of 201 nM and an EC50 (HBL1) of 25800 nM.
